The test system of one series is PDE-3. The conditions noted are these: cited from earlier work.
Another series deals with reconstituted sarcomeres. Briefly: sarcomere component swap experiment. In kind it is biochemical, bovine, rabbit. As to conditions: four myosin S1/thin filament combinations; 1 and 2 at 40 μM.
The next series deals with fast skeletal myofibrils (Oryctolagus cuniculus, UniProt P02586+P02643). Briefly: fast skeletal myofibril ATPase assay. In kind it is biochemical, rabbit.
In the next series the target is smooth muscle myosin (Gallus gallus, UniProt P10587). The experiment in a line: smooth muscle myosin ATPase assay. The class given is biochemical, chicken.
Series [1] relates to adult rat ventricular myocytes. The experiment in a line: rat cardiomyocyte contractility assay. The class given is cell-based. The conditions noted are these: 10 μM, 1 Hz, 37 °C, vs untreated cells.
The test system of series [2] is adult rat ventricular myocytes. The experiment in a line: cardiomyocyte calcium transient experiments. The conditions noted are these: 10 μM, Fura dye. The class given is cell-based.
In another series the target is slow skeletal myofibrils (Bos taurus, UniProt P63315). Briefly: slow skeletal myofibril ATPase assay. In kind it is biochemical, bovine.
The nature of series [3]: solubility in the PDE-3 buffer solution. In kind it is physicochemical.
In the next series the target is phosphodiesterase 3a (Homo sapiens, UniProt Q14432). Briefly: PDE-3 inhibition assay. In kind it is biochemical.
The next series in a line: solubility assessment. The class given is physicochemical. The conditions noted are these: monopotassium phosphate JP2 buffer, pH 6.8.
Series [4] can be described thus: rat pharmacokinetic assessment, IV. In kind it is in vivo. As to conditions: dosed IV in rats.

Structures are written as SMILES. Values after ≈ are worked out from the molar mass of the structure shown. “Also recorded” adds a separate entry of the source.

fast skeletal myofibrils, sequence (P02586 whole entry): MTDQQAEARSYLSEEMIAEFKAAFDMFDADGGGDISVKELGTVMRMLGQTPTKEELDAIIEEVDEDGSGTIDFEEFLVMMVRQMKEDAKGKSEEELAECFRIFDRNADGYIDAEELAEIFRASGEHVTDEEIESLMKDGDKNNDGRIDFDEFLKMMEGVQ
fast skeletal myofibrils, sequence (P02643 whole entry): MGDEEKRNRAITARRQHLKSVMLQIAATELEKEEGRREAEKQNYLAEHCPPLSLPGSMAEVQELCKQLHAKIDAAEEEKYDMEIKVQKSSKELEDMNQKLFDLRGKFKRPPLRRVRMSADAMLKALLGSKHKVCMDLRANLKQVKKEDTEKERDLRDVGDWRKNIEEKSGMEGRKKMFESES
fast skeletal myofibrils, sequence (P02641 whole entry partner): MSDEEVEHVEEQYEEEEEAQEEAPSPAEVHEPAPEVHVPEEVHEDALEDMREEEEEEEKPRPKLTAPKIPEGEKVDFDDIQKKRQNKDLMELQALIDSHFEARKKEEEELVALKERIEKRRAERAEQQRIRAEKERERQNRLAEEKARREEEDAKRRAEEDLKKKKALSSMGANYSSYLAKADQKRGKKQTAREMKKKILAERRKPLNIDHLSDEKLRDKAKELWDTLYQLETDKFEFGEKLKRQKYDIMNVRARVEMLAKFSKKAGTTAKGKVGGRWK
smooth muscle myosin, sequence (P10587 whole entry): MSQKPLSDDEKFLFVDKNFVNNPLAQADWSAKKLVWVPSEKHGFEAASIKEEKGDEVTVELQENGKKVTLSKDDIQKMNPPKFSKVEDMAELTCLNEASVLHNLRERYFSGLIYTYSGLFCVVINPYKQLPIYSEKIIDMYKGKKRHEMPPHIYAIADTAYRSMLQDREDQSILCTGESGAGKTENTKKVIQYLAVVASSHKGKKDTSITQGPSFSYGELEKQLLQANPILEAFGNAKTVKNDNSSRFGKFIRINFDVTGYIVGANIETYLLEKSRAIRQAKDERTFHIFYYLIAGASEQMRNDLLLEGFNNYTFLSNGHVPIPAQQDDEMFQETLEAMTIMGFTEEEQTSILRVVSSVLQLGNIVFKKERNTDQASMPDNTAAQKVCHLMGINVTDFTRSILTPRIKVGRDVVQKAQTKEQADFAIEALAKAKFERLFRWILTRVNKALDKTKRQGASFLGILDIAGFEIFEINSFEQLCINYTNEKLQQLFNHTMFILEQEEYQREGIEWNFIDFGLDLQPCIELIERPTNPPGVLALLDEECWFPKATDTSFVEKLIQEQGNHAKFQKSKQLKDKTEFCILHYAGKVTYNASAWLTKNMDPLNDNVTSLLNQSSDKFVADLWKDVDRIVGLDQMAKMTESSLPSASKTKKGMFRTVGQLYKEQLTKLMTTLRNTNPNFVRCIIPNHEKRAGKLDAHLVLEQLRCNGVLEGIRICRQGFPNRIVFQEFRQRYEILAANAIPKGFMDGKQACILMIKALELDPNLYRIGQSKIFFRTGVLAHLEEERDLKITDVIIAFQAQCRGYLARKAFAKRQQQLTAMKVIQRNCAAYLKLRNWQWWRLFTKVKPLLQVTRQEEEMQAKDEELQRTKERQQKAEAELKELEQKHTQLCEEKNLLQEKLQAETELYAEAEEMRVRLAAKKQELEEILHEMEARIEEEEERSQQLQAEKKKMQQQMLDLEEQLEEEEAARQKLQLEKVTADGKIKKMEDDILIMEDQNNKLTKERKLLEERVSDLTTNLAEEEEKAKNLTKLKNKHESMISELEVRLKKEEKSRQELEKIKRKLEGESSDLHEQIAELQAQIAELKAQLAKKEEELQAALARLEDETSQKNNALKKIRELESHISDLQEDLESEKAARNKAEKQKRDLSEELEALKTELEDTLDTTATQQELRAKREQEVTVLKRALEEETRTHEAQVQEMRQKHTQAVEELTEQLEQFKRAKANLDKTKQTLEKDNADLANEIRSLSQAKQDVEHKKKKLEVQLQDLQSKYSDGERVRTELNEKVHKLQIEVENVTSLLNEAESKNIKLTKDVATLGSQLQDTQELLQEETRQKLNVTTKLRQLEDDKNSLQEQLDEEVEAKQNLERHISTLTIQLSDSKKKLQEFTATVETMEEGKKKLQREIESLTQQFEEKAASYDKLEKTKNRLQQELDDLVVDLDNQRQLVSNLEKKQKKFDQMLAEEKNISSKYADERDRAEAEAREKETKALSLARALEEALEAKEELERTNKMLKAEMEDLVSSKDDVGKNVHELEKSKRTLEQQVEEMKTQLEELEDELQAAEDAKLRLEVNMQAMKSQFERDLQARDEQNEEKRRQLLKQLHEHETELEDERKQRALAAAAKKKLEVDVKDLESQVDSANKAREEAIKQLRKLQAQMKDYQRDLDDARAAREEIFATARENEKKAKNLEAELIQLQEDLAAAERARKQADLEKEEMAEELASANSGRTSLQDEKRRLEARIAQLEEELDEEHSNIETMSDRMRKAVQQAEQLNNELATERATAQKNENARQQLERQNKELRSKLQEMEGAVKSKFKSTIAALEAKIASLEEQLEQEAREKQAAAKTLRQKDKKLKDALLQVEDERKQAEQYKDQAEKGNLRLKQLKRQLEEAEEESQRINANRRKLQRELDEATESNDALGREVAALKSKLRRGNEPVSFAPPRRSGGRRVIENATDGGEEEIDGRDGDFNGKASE
smooth muscle myosin, sequence (P02607 whole entry partner): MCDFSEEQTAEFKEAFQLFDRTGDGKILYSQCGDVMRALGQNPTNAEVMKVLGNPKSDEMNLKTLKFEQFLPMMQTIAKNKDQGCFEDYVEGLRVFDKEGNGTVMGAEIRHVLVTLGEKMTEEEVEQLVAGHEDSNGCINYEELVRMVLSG
smooth muscle myosin, sequence (P02612 whole entry partner): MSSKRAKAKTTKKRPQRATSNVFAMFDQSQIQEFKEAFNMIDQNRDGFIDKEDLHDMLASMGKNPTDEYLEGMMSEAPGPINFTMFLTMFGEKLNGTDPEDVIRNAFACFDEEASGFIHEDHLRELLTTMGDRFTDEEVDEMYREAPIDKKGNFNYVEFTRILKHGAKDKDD
phosphodiesterase 3a, sequence (Q14432 whole entry): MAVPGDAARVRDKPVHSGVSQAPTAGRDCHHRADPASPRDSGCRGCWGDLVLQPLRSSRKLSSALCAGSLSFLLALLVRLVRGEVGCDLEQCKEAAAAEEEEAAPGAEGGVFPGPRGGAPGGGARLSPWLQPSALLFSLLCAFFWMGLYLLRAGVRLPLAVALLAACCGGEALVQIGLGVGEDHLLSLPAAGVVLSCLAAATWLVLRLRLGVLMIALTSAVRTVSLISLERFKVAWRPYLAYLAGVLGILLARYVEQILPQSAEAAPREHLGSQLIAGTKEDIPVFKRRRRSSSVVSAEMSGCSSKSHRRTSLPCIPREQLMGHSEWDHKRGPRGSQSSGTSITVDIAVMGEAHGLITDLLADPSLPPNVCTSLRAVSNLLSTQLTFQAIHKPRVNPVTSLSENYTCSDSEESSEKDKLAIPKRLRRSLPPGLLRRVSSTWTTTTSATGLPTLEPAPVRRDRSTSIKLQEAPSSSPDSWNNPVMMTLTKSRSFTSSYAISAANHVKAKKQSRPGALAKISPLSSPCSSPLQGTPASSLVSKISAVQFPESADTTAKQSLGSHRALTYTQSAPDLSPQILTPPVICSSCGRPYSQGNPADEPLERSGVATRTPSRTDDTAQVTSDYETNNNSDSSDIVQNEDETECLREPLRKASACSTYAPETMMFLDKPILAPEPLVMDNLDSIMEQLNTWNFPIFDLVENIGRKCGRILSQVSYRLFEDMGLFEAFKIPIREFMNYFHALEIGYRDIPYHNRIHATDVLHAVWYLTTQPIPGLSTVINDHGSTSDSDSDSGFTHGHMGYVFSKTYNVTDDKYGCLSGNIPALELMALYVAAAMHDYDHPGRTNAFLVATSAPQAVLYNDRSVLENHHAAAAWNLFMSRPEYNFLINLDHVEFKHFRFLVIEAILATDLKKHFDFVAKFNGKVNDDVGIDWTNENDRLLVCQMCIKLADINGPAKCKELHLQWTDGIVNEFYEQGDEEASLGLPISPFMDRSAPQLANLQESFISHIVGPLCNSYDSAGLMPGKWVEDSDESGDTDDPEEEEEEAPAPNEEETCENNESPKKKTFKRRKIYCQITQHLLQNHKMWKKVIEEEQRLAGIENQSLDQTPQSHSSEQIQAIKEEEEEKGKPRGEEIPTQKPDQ

Turning to `C[C@@H]1CC(=O)NN=C1c1ccc(NN=C(C#N)C#N)cc1` [Levosimendan], the “PDE-3 inhibition in words” value in the series on PDE-3 is recorded as “single digit nanomolar PDE-3 inhibition”.
Turning to `O=c1[nH]c2ccc(S(=O)(=O)Nc3ccc(-c4ccccc4)cc3)cc2[nH]1` [compound 1], the “activation of reconstituted sarcomeres in words” value with reconstituted sarcomeres is “Only the reconstituted sarcomeres that contain the cardiac thin filament showed activation”.
With `O=c1[nH]c(=O)c2cc(S(=O)(=O)Nc3ccc(N4CCCCCC4)cc3)ccc2[nH]1` [compound 2], the “fast skeletal myofibril activity in words” value at fast skeletal myofibrils is “inactive; also recorded: did not activate”. On smooth muscle myosin, the “smooth muscle myosin activity in words” value is “inactive; also recorded: did not activate”. In addition, the “myocyte fractional shortening in words” value in series [1] is recorded as “significantly increased myocyte fractional shortening”. In addition, in series [2], the “intracellular calcium concentrations in words” value is reported as “without changing intracellular calcium concentrations”. Besides, the “activation of reconstituted sarcomeres in words” value with reconstituted sarcomeres was “Only the reconstituted sarcomeres that contain the cardiac thin filament showed activation”.
For the molecule `O=c1[nH]c(=O)c2cc(S(=O)(=O)Nc3ccc(-c4ccccc4)cc3)ccc2[nH]1` [compound 3], the “slow skeletal myofibril AC40” value at slow skeletal myofibrils is less than 0.1 µM. Further, on fast skeletal myofibrils, the “fast skeletal myofibril activity in words” value was “did not activate”. For the same molecule, the “smooth muscle myosin activity in words” value at smooth muscle myosin was “did not activate”.
In turn, `Cn1c(=O)[nH]c(=O)c2cc(S(=O)(=O)Nc3ccc(-c4ccccc4)cc3)ccc21` [compound 5] gave a solubility in series [3] of 1.2 µM (≈ 0.489 µg/mL).
The molecule `C[C@@H]1C[C@@H](C)CN(c2ccc(NS(=O)(=O)c3ccc4c(c3)c(=O)[nH]c(=O)n4C)cn2)C1` [compound 13, N-(6-((3R,5R)-3,5-Dimethylpiperidin-1-yl)pyridin-3-yl)-1-methyl-2,4-dioxo-1,2,3,4-tetrahydroquinazoline-6-sulfonamide] had an IC50 against phosphodiesterase 3a of 7 µM.
In “solubility assessment”, `CNc1cc2nc(C)[nH]c(=O)c2cc1S(=O)(=O)Nc1ccc(N2C[C@H](C)C[C@@H](C)C2)nc1` [compound 17, N-(6-((3R,5R)-3,5-Dimethylpiperidin-1-yl)pyridin-3-yl)-2-methyl-7-(methylamino)-4-oxo-3,4-dihydroquinazoline-6-sulfonamide] displayed a solubility at 12 h of 6.7 µM (≈ 3.06 µg/mL). The “clearance relative to hepatic blood flow” value in series [4] is recorded as < 25 % of hepatic blood flow (Qh).

As usually defined, the solubility is the dissolved amount per volume that the medium holds. As usually defined, the IC50 is the point on the concentration scale where inhibition reaches its midpoint. A higher IC50 goes with weaker potency.

The values above are taken from PMC11129196 (Journal of Medicinal Chemistry, 2024).
